Laboratory results as given in patent US8796293B2, “Purine and deazapurine derivatives as pharmaceutical compounds” (Astex Therapeutics Limited, priority 2006, dated 2014).
Like-named read-outs stand apart in the source and are kept apart here.

Tests used:
ROCK-II (h) = ROCK-II (h) (Homo sapiens (Human), UniProt O75116); experiment: ROCK-II (h) assay, radiometric filter assay; format: biochemical; conditions: read-out: IC50 (anti-ROCK-II activity)
Description: (specific activity approx. 500 cpm/pmol, concentration as required). The reaction is initiated by the addition of the MgATP mix. After incubation for 40 minutes at room temperature, the reaction is stopped by the addition of 5 μl of a 3% phosphoric acid solution. 10 μl of the reaction is then spotted onto a P30 filtermat and washed three times for 5 minutes in 75 mM phosphoric acid and once in methanol prior to drying and scintillation counting.
The compound of various examples described above were tested for anti-ROCK-II activity (assay as described above): […]

P70S6 kinase (T412E) = P70S6 kinase (T412E) (Homo sapiens (Human), UniProt P23443, T412E); experiment: P70S6 radiometric assay; format: biochemical
Chain of P70S6 kinase (T412E) (P23443 whole entry T412E): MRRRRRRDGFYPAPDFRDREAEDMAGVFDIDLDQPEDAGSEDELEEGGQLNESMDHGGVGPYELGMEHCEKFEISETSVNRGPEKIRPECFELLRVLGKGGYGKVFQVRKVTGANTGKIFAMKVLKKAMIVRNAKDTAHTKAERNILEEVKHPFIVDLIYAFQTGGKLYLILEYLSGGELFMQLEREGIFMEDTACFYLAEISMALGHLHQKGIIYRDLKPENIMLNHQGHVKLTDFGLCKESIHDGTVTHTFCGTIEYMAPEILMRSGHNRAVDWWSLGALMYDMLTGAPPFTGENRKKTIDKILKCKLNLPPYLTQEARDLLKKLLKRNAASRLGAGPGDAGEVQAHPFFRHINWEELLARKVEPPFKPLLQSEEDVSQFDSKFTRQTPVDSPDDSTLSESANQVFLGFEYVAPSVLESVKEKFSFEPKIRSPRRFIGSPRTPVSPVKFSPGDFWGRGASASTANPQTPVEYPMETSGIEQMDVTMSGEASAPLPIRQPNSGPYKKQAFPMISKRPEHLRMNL
Description: P70S6 enzyme is bought from Upstate and used at 2 nM in the assay. […] In the phosphoryl transfer reaction, the ^33P-γ phosphate from ATP is transferred to the serine residue. The reaction mixture is transferred to a phosphocellulose filter plate where the peptide binds and the unused ATP is washed away. After washing, scintillant is added and the incorporated activity measured by scintillation counting.
ATP (10 mM stock) added fresh from concentrated stocks.
Compounds—prepare a dilution curve in DMSO in a polypropylene 96 well plate to 40× final assay concentration (final DMSO 2.5%).
In a polypropylene 96 well plate add in order: • 5 μl compound • 10 μl substrate mix • 10 μl enzyme mix
Controls are “no compound” (DMSO only) and “no enzyme” (use 10 μl of the enzyme mix prior to adding enzyme). Cover with a plate seal (TopSeal A—Packard) or plastic lid from filter plate (moderate radiation barrier). Mix by gentle shaking. Incubate at room temperature for 50 minutes. Stop the reaction by adding 20 μl of 2% orthophosphoric acid.
Pre-wet the wells of a Millipore MAPH NOB plate with 50 μl of 0.5% orthophosphoric acid wash buffer. Filter the liquid through on a Millipore vacuum filtration unit. Transfer the whole of the stopped reaction to the wells. Filter through. Wash twice with 200 μl of 0.5% orthophosphoric acid wash buffer. Vacuum to near dryness. Remove the plate support and allow to the filters to dry further on tissue paper. Snap the plate into an adapter for the Packard TopCount. Add 20 μl of Microscint 20 scintillant, seal with a sheet of Topseal A and count for 30s on the TopCount.

blood pressure = conditions: cited from earlier work
[1] = rat, in vivo, po, 30 mg/kg; cited from earlier work
[2] = enzyme 2 nM, ATP approximately 15 μM, 50 minutes at room temperature, read-out: IC50 (anti-P70S6K activity)
[3] = [γ-33P-ATP], 40 minutes at room temperature

Chain of ROCK-II (h) (O75116 whole entry): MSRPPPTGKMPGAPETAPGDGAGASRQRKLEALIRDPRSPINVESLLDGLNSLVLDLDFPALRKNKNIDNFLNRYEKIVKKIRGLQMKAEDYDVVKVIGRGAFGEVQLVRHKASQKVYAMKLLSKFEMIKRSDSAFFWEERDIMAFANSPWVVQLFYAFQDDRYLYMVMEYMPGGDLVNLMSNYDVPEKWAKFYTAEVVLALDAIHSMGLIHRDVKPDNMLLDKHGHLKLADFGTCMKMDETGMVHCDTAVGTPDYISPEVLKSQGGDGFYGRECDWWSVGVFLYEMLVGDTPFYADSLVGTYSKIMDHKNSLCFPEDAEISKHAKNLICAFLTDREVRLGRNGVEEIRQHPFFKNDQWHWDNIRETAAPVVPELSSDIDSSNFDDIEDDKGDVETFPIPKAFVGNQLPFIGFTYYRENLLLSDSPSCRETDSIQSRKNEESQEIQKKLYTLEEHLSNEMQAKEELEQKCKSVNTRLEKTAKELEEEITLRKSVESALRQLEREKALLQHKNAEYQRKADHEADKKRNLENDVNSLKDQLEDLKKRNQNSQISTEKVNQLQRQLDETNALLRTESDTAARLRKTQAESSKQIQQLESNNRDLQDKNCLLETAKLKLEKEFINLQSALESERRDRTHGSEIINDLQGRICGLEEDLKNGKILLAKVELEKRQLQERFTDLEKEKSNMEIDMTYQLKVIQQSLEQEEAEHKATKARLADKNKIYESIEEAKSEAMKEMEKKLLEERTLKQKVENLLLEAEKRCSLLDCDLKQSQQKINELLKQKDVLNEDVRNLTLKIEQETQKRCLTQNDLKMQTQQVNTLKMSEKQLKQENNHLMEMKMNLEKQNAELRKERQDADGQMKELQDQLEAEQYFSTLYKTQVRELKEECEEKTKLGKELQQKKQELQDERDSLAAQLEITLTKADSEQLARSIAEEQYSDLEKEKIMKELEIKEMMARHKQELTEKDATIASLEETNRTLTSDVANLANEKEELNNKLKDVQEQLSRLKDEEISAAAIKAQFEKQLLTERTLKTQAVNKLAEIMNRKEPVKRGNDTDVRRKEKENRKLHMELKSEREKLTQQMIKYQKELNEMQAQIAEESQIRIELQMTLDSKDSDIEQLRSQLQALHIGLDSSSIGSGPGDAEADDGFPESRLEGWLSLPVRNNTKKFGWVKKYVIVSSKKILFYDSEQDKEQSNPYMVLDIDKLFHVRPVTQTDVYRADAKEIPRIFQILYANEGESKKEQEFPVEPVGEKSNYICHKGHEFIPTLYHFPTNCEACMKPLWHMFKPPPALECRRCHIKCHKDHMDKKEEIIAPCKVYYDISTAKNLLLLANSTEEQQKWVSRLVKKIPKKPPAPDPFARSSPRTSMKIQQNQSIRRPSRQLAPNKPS

Compound	IC50 (P70S6 kinase (T412E); [2]) [nM]	IC50 (ROCK-II (h); [3]) [nM]	also measured
NC1CCN(c2ncnc3[nH]c(=O)[nH]c23)CC1 [Example 4, 6-(4-Aminopiperidin-1-yl)-7,9-dihydropurin-8-one]	3000		IC50 (ROCK-II (h)): > 1000 nM
NC1(Cc2ccc(Cl)cc2)CCN(c2ncnc3[nH]ccc23)CC1 [Example 17, 4-(4-Chlorobenzyl)-1-(7H-pyrrolo[2,3-d]pyrimidin-4-yl)piperidin-4-ylamine]	94	< 1000	
NC1(c2ccc(Cl)cc2)CCN(c2ncnc3[nH]ccc23)CC1 [Example 25, 4-(4-Chlorophenyl)-1-(7H-pyrrolo[2,3-d]pyrimidin-4-yl)piperidin-4-ylamine]			IC50 (P70S6 kinase (T412E)): 13 nM
NCC1(c2ccc(OC(F)(F)F)cc2)CCN(c2ncnc3[nH]ccc23)CC1 [Example 30]	7		
NC1(Cc2ccc(Cl)cc2)CCN(c2ccnc3[nH]ccc23)CC1 [Example 54, 4-(4-Chlorobenzyl)-1-(1H-pyrrolo[2,3-b]pyridin-4-yl)-piperidin-4-ylamine]	30	< 10	
NC1(Cc2ccccc2Cl)CCN(c2ncnc3[nH]ccc23)CC1 [Example 55, 4-(2-Chlorobenzyl)-1-(7H-pyrrolo[2,3-d]pyrimidin-4-yl)piperidin-4-ylamine]		> 1000	
NC1(Cc2ccc(Cl)cc2Cl)CCN(c2ncnc3[nH]ccc23)CC1 [Example 59, 4-(2,4-Dichlorobenzyl)-1-(7H-pyrrolo[2,3-d]pyrimidin-4-yl)piperidin-4-ylamine]	59		IC50 (ROCK-II (h)): < 30 nM
C[C@@H](N)[C@H]1CC[C@H](C(=O)Nc2ccncc2)CC1 [Example Y-27632]			effect on blood pressure (blood pressure; hypertensive rats): reduces blood pressure; effect on blood pressure (blood pressure; normal rats): does not affect blood pressure; toxicity in rats [1]: not toxic
